Patent US5639881A, “Synthesis and elucidation of pyrimido (4,5-Q) quinazoline derivatives” (priority 1991, dated 1997)
Where two headings read alike, the source gives them in different places.

How the values were obtained:
physchem = format: physicochemical
Excerpt: (§1) The mechanism of 38 and 39 formation from 28 is discussed in conjunction with Scheme VI. The pH-rate data in FIG. 1 indicate that rate-determining chloride elimination occurs from the neutral, monoanion, dianion, and trianion forms of 28. Plateaus corresponding to the first three eliminations are indicated on FIG. 1. The increasing rates above pH 11 may pertain to equilibrium trianion formation and rate-determining elimination of chloride from the trianion. Consideration of rate-determining chloride elimination from the various forms of 28 provides the rate law shown in equation 1 [formula] where the rate and equilibrium constants are those shown in Scheme VI. The numerical values for these constants (shown in Scheme VI) were obtained by computer-fitting the data in FIG. 1 to equation 1. The solid line in FIG. 1 was then generated from equation 1 substituted with these constants. The independently determined pKa for monoanion formation (8.26±0.15) is in agreement with the kinetic pKa value (8.3). Thus, the kinetically-determined pKa values in Scheme VI represent actual acid dissociations rather than mixtures of constants. [drawing 5]
(§2) In aerobic aqueous buffer, both 43 and 44 are converted to the corresponding quinones {Scheme IX) by first-order processes. […] The solid curve of Plot A was generated from the rate law, kobsd =k1 +k2 Ka1 /(aH +Ka1), where k1 is the rate of oxidation of the neutral species (1×10^-3 sec^-1), k2 is the rate of oxidation of the hydroquinone monoanion (0.046 sec^-1), pKa1 is the acid dissociation constant (7.78), and aH is the proton activity determined with a pH meter. The acid dissociation constant obtained from the pH-rate data is nearly the same as the value determined previously, 8.26±0.15.1

colon and breast cancers = details: for IC50: Homo sapiens; for antitumor activity: colon and breast cancers
[1] = quinone methide trapping with added 2-mercaptoethanol; format: physicochemical; details: 10 to 100X excess of mercaptoethanol
Excerpt: Chloride elimination from the neutral and anionic forms of 28 affords an equilibrating mixture of protonated (36), neutral (37), and anionic (37^-) quinone methides. Proton trapping by 37^-, in competition with water trapping of 36 and 37, then affords a mixture of 38 and 39. Evidence of steady-state intermediates capable of trapping nucleophiles (36 and 37) was obtained by adding 10 to 100X excess of Z-mercaptoethanol over 28. […] The presence mercaptoethanol results in formation of a hydroquinone (nucleophile-trapped) product 40 and no quinone 39, however. Thus, quinone methide formation must occur in a rate determining step, followed by its relatively rapid trapping by the mercaptide nuceophile. The mercaptoethanol trapping studies of benzimidazole (See: Skibo, E. B., J. Org. Chem. 1986, 51, 522) and quinazoline (See: Lemus et al., op. cit.) based quinone methides likewise provided evidence of a steady-state species.

[2] = format: physicochemical
Excerpt: The hydrolysis of 28 was followed spectrophotometrically at 430 nm in anaerobic aqueous buffer over a pH range of 6 to 12 with [28]=5×10^-5 M. Absorbance vs. time plots for hydrolysis are first order in character, with the first-order rate constants (kobsd)independent of buffer concentration but dependent on pH as shown in FIG. 1. The use of known hydroquinone and quinone extinction coefficients at 430 nm permitted the calculation of product yields: 69±1% 38 and 31±1% 39 regardless of the pH (product structures shown in Scheme VI). The accuracy of the yield determinations was enhanced by the intense hydroquinone visible spectrum and the absence of visible absorbances for the quinone derivative. Product isolation studies confirmed the presence of 39.
as §1
The hydrolysis of 35 in anaerobic buffer proceeds by a first-order process to afford 42 as the sole product. […] The pH-rate profile, obtained over the pH range of 5 to 8, is a straight line of slope +1. […] Computer fitting the pH-rate data to kobsd =k1 Ka1 /aH, and substituting pKa1 =10.3, provides and elimination rate constant of k1 =24 sec^-1.
(§3) Kinetic Studies of Hydrolysis and Oxidation. The hydrolytic studies of 28 and 35 were carried out in anaerobic aqueous buffer, and the reoxidation studies of 43 and 44 were carried out in aerobic aqueous buffer at 30.0°±0.2° C. The anaerobic experiments were carried out with Thunberg cuvettes as previously described. A dimethyl sulfoxide stock of the compound to be studied was prepared fresh, and 50 μL of this stock was added to 2.95 mL of buffer. The absorbance vs time data were obtained on a PERKIN-ELMER 559 or a Lambda-3 UV-vis spectrophotometer and fit to a first-order rate law.

[3] = reduced capability to cycle between reduced and oxidized forms; cited from earlier work
[4] = lipophilicity (statement)
[5] = format: physicochemical; remark: listed apart in the source
Description: Oxygen Reactivity. In order to assess the capability of the title systems to generate reactive oxygen species by quinone/hydroquinone cycling, the rate laws were determined for oxygen oxidation of 43 and 44, Scheme IX. These respective hydroquinones are analogues of 28 and 35 without leaving groups present. As expected, the internal hydrogen bonds of 43 slow oxidation at high pH while the absence of hydrogen bonds in 44 result in stopped flow oxidations under these conditions. However, the crossing of the pH-rate profiles near neutrality (FIG. 3) results in similar rates of oxidation for both systems at physiological pH.
as §2, §3

[6] = value determined previously; cited from earlier work
[7] = read-out: IC50 values as low as
[8] = regardless of pH (pH 6 to 12), 5×10^-5 M, 430 nm
[9] = aerobic aqueous buffer, 30.0 °C

Structure (SMILES): COc1c2nc(CCl)n(C)c(=O)c2c(OC)c2nc(CCl)n(C)c(=O)c12 [compound 16, 2,7-Bis(chloromethyl)-5,10-dimethoxy-3,8-dimethylpyrimido [4,5-g]quinazoline-4,9(3H,8H)-dione]
- ionization at physiological pH (physchem): will not ionize at physiological pH
- IC50 (colon and breast cancers; [7]): ≥ 20 nM

Structure (SMILES): Cn1c(CCl)nc2c(c1=O)C(=O)c1nc(CCl)n(C)c(=O)c1C2=O [compound 22, 2,7-Bis(chloromethyl)-3,8-dimethylpyrimido[4,5-g]quinazoline-4,5,9,10(3H8H)-tetrone]
- antitumor activity (colon and breast cancers): inactive

Structure (SMILES): Cc1nc2c(O)c3c(=O)[nH]c(CCl)nc3c(O)c2c(=O)[nH]1 [compound 28, 2-(Chloromethyl)-5,10-dihydroxy-7-methylpryimido[4,5-g]quinazoline-4,9(3H,8H)-dione]
- observed rate constants in presence of 2-mercaptoethanol vs hydrolysis without it [1]: essentially the same
- pKa (physchem; aqueous buffer, from computer-fit of pH-rate profile of hydrolysis, read-out: kinetic pKa value): 8.3
- yield of hydrolysis product 38 [2, 8]: 69±1%
- yield of hydrolysis product 39 [2, 8]: 31±1%

Structure (SMILES): COc1cccc2c1C(=N)c1c(O)c3c(c(O)c1C2=O)C[C@@](O)(C(C)=O)C[C@@H]3O[C@H]1C[C@H](N)[C@H](O)[C@H](C)O1 [5-iminodaunorubicin]
- cardiotoxicity [3]: does reduce cardiotoxicity

Structure (SMILES): COc1c2nc(CBr)n(C)c(=O)c2c(OC)c2nc(CBr)n(C)c(=O)c12 [compound 17, 2,7-Bis (bromomethyl)-5,10-dimethoxy-3,8-dimethylpyrimido[4,5-g]quinazoline-4,9(3H,8H)-dione]
- ionization at physiological pH (physchem): will not ionize at physiological pH
- IC50 (colon and breast cancers; [7]): ≥ 20 nM
- lipophilicity [4]: lipophilic

Structure (SMILES): Cc1nc2c(O)c3c(=O)n(C)c(C)nc3c(O)c2c(=O)n1C [compound 44]
- stability toward oxygen relative to reduced anthracyclines [5]: more stable toward oxygen than reduced anthracyclines
- rates of oxidation ([5]; at or above pH 9): stopped flow rates
- rate of oxidation of the hydroquinone monoanion [5, 9]: 5.8 s⁻¹
- rate of oxidation at physiological pH [5]: 9×10^-3 sec^-1

Structure (SMILES): Cc1nc2c(O)c3c(=O)[nH]c(C)nc3c(O)c2c(=O)[nH]1 [compound 43]
- pKa (physchem; aerobic aqueous buffer, from pH-rate profile of oxidation, read-out: pKa1 (hydroquinone acid dissociation constant from pH-rate data)): 7.78
- stability toward oxygen relative to reduced anthracyclines [5]: more stable toward oxygen than reduced anthracyclines
- rate of oxidation of the hydroquinone monoanion [5, 9]: 0.046 s⁻¹
- fold slower oxidation of 43^- than 44^- ([5]; monoanions): 128 fold
- k1, rate of oxidation of the neutral species ([5]; neutral hydroquinone, aerobic aqueous buffer, 30.0 °C): 0.001 s⁻¹
- rate of oxidation at physiological pH [5]: 1.7×10^-2 sec^-1
- acid dissociation constant (pKa) determined previously [6]: 8.26±0.15

Structure (SMILES): O=C1c2nc(CBr)[nH]c(=O)c2C(=O)c2nc(CBr)[nH]c(=O)c21 [compound 19, 2,7-Bis(bromomethyl)pyrimido[4,5-g]quinazoline-4,5,9,10(3H,8H)-tetrone]
- pKa (physchem; anion formation near neutrality, read-out: pKa (conversion to an anion)): 6.5
- IC50 (colon and breast cancers): > 1000 nM
- antitumor activity (colon and breast cancers): poor activity

Structure (SMILES): Cc1nc2c(O)c3c(=O)n(C)c(CCl)nc3c(O)c2c(=O)n1C [compound 35, 2-(Chloromethyl)-5,10-dihydroxy-3,7,8-trimethylpyrimido[4,5-g]quinazoline-4,9(3H,8H)-dione]
- stability in protic solvent ([2]; any protic solvent): rapidly eliminates HCl
- k1, rate constant for elimination of chloride from the monoanion ([2]; monoanion, anaerobic aqueous buffer, 30.0 °C): 24 s⁻¹
- rates of hydrolysis ([2]; much above pH 8): stopped-flow rates
